# Biological target: T1, soluble guanylate cyclase (sGC) (Bos taurus, UniProt P16068)
# T1 construct: The sGC which was employed had been isolated from bovine lung; from tissue; host or cells: bovine lung
# T1 sequence (P16068 1-619): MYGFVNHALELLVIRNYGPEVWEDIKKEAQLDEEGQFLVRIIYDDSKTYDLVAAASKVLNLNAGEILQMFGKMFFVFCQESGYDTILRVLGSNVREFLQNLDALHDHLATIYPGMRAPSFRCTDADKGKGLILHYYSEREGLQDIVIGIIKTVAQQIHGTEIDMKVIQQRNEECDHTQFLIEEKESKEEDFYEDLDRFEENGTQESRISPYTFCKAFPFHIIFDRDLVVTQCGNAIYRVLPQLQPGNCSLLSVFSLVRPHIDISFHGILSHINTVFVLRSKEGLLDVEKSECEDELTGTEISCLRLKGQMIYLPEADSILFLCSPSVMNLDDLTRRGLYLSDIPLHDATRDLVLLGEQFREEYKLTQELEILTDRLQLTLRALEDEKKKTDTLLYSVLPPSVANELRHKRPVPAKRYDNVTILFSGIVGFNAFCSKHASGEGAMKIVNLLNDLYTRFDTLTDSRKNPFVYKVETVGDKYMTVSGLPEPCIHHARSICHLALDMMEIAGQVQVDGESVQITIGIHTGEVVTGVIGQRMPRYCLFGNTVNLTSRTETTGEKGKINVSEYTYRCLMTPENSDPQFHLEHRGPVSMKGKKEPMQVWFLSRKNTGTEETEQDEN
# T1 sequence (P19687 1-691 partner): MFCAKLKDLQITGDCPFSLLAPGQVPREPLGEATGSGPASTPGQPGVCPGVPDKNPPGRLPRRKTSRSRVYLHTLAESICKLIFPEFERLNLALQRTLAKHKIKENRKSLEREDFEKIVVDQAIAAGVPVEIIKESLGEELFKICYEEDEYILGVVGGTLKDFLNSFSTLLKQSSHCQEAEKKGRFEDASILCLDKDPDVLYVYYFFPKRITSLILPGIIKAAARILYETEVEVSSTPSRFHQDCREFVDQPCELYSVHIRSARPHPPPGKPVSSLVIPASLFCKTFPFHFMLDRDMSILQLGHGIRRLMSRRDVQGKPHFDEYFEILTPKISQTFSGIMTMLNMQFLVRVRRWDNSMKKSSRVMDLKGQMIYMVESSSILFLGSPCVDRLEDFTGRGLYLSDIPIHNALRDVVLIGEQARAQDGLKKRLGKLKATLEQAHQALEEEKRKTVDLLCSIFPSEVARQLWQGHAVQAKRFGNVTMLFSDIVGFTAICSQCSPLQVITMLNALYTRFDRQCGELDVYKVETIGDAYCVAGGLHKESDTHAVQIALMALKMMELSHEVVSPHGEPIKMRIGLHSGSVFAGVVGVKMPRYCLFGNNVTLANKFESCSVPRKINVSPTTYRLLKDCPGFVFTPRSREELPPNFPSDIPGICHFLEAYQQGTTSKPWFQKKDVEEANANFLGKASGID
# Assay: Activation of the soluble guanylate cyclase (cGMP enzyme immunoassay)
# Type: biochemical, bovine
# Conditions: concentration c 5 μM; n-fold stimulation of basal enzyme activity
# Method: The activation of the soluble guanylate cyclase (sGC) which catalyzes the conversion of guanosine triphosphate (GTP) into cyclic guanosine monophosphate (cGMP) and pyrophosphate, by the compounds according to the invention was quantified with the aid of an enzyme immunoassay (EIA) from Amersham. For this purpose the substances to be tested were initially incubated with sGC in microtiter plates, and the amount of the cGMP formed was then determined.
# The sGC which was employed had been isolated from bovine lung (see Methods in Enzymology, Volume 195, p. 377). The test solutions (100 μl per well) contained 50 mM triethanolamine (TEA) buffer (pH 7.5), 3 mM MgCl2, 3 mM reduced glutathione (GSH), 0.1 mM GTP, 1 mM 3-isobutyl-1-methylxanthine (IBMX), suitably diluted enzyme solution and the substance to be tested or, in the control experiments, the solvent. The substances to be tested were dissolved in dimethyl sulfoxide (DMSO) and the solution was diluted with DMSO/water, so that the final concentration (c) of the substance to be tested in the test solution had the value indicated in the table. The DMSO concentration in the test solution was 5% (v/v). The reaction was initiated by addition of the sGC. The reaction mixture was incubated at 37° C. for 15 to 20 minutes and then stopped by ice-cooling and addition of the stop reagent (50 mM EDTA, pH 8.0). An aliquot of 50 μl was taken and used for determining the cGMP content using the acetylation protocol of the Amersham cGMP-EIA kit. The absorption of the samples was measured at 450 nm (reference wavelength 620 nm) in a microtiter plate reader. The cGMP concentration was determined using a standard curve which was obtained under the same test conditions. The activation of sGC by a test substance is given as the n-fold stimulation of the basal enzyme activity which was found in the control experiments (using solvent instead of test substance) (calculated using the formula n-fold stimulation=[cGMP]test substance/[cGMP]control).
row,n-fold stimulation,Structure (SMILES)
1,20.0,"Cc1cc(NC(=O)c2cc(Cl)ccc2NS(=O)(=O)c2ccc(Cl)cc2)ccc1S(=O)(=O)N1CC(C)CC(C)C1 (stereo not drawn) [Example 194, 5-Chloro-2-(4-chloro-phenylsulfonylamino)-N-(4-(3,5-dimethyl-piperidine-1-sulfonyl)-3-methyl-phenyl)-benzamide]"

# Same assay, conditions: concentration c 10 μM; n-fold stimulation of basal enzyme activity
row,n-fold stimulation,Structure (SMILES)
1,27.5,"COc1cc(NS(=O)(=O)c2ccc(Cl)s2)c(C(=O)Nc2ccc(S(=O)(=O)N(C)Cc3cccnc3)cc2)cc1OC.Cl [Example 191, 4,5-Dimethoxy-2-(5-chloro-thiophene-2-sulfonylamino)-N-(4-(N-methyl-N-(pyridin-3-yl-methyl)=aminosulfonyl)-phenyl)-benzamide hydrochloride]"
2,26.7,"Cc1cc(NC(=O)c2cc(Cl)ccc2NS(=O)(=O)c2ccc(Cl)cc2)ccc1S(=O)(=O)N1CCOCC1 [Example 192, 5-Chloro-2-(4-chloro-phenylsulfonylamino)-N-(4-(morpholine-4-sulfonyl)-3-methyl-phenyl)-benzamide]"
3,31.1,"Cc1cc(NC(=O)c2cc(Cl)ccc2NS(=O)(=O)c2ccc(Cl)cc2)ccc1S(=O)(=O)N1C[C@@H](C)O[C@@H](C)C1 [Example 193, 5-Chloro-2-(4-chloro-phenylsulfonylamino)-N-(4-(cis-2,6-dimethyl-morpholine-4-sulfonyl)-3-methyl-phenyl)-benzamide]"
4,16.2,"Cc1cc(NC(=O)c2cc(Cl)ccc2NS(=O)(=O)c2ccc(Cl)cc2)ccc1S(=O)(=O)N1CCCCC1 [Example 195, 5-Chloro-2-(4-chloro-phenylsulfonylamino)-N-(4-(piperidine-1-sulfonyl)-3-methyl-phenyl)-benzamide]"
5,21.9,"COc1cc(NS(=O)(=O)c2c(C)noc2C)c(C(=O)Nc2ccc(S(=O)(=O)N(C)Cc3cccnc3)cc2)cc1OC [Example 196, 4,5-Dimethoxy-2-(3,5-dimethyl-isoxazole-4-sulfonylamino)-N-(4-(N-methyl-N-(pyridin-3-yl-methyl)-aminosulfonyl)-phenyl)-benzamide]"

# Same assay, conditions: concentration c 50 μM; n-fold stimulation of basal enzyme activity
row,n-fold stimulation,Structure (SMILES)
1,9.9,"O=C(Nc1ccc(S(=O)(=O)N2CCOCC2)cc1)c1cc(Cl)ccc1NS(=O)(=O)c1cccnc1 [Example 132, 5-Chloro-N-(4-(morpholine-4-sulfonyl)-phenyl)-2-(pyridine-3-sulfonylamino)-benzamide]"
2,7.2,"CCS(=O)(=O)Nc1ccc(Cl)cc1C(=O)Nc1ccc(S(=O)(=O)N2CCOCC2)cc1 [Example 134, 5-Chloro-2-(ethylsulfonylamino)-N-(4-(morpholine-4-sulfonyl)-phenyl)-benzamide]"
3,24.2,"O=C(Nc1ccc(S(=O)(=O)N2CCOCC2)cc1)c1cc(Cl)ccc1NS(=O)(=O)c1cccs1 [Example 136, 5-Chloro-N-(4-(morpholine-4-sulfonyl)-phenyl)-2-(thiophene-2-sulfonylamino)-benzamide]"
4,4.6,"O=C(Nc1ccc(S(=O)(=O)N2CCOCC2)cc1)c1cc(Cl)ccc1NS(=O)(=O)c1ccc(C(F)(F)F)cc1 [Example 137, 5-Chtoro-N-(4-(morpholine-4-sulfonyl)-phenyl)-2-(4-trifluoromethyl-phenylsulfonylamino)-benzamide]"
5,21.9,"O=C(Nc1ccc(S(=O)(=O)N2CCOCC2)cc1)c1cc(Cl)ccc1NS(=O)(=O)c1cc(C(F)(F)F)cc(C(F)(F)F)c1 [Example 139, 2-(3,5-Bis-trifluoromethyl-phenylsulfonylamino)-5-chloro-N-(4-(morpholine-4-sulfonyl)-phenyl)-benzamide]"
6,8,"O=C(Nc1ccc(S(=O)(=O)N2CCOCC2)cc1)c1cc(Cl)ccc1NS(=O)(=O)c1cc(Br)c(Br)s1 [Example 145, 5-Chloro-2-(4,5-dibromo-thiophene-2-sulfonylamino)-N-(4-(morpholine-4-sulfonyl)-phenyl)-benzamide]"
7,10.2,"O=C(Nc1ccc(S(=O)(=O)N2CCOCC2)cc1)c1cc(Cl)ccc1NS(=O)(=O)c1ccc(F)cc1 [Example 146, 5-Chloro-2-(4-fluoro-phenylsulfonylamino)-N-(4-(morpholine-4-sulfonyl)-phenyl)-benzamide]"
8,15.5,"COc1ccc(S(=O)(=O)Nc2ccc(Cl)cc2C(=O)Nc2ccc(S(=O)(=O)N3CCOCC3)cc2)cc1Cl [Example 148, 5-Chloro-2-(3-chloro-4-methoxy-phenylsulfonylamino)-N-(4-(morpholine-4-sulfonyl)-phenyl)-benzamide]"
9,15.3,"Cc1cc(C)c(S(=O)(=O)Nc2ccc(Cl)cc2C(=O)Nc2ccc(S(=O)(=O)N3CCOCC3)cc2)c(C)c1 [Example 150, 5-Chloro-N-(4-(morpholine-4-sulfonyl)-phenyl)-2-(2,4,6-trimethyl-phenylsulfonylamino)-benzamide]"
10,19.9,"O=C(Nc1ccc(S(=O)(=O)N2CCOCC2)cc1)c1cc(Cl)ccc1NS(=O)(=O)c1cccc([N+](=O)[O-])c1 [Example 151, 5-Chloro-N-(4-(morpholine-4-sulfonyl)-phenyl)-2-(3-nitro-phenylsulfonylamino)-benzamide]"
11,7.8,"O=C(Nc1ccc(S(=O)(=O)N2CCOCC2)cc1)c1cc(Cl)ccc1NS(=O)(=O)CC(F)(F)F [Example 155, 5-Chloro-N-(4-(morpholine-4-sulfonyl)-phenyl)-2-(2,2,2-trifluoro-ethylsulfonylamino)-benzamide]"
12,7.8,"CCCCS(=O)(=O)Nc1ccc(Cl)cc1C(=O)Nc1ccc(S(=O)(=O)N2CCOCC2)cc1 [Example 156, 2-(Butyl-sulfonylamino)-5-chloro-N-(4-(morpholine-4-sulfonyl)-phenyl)-benzamide]"
13,4.6,"O=C(Nc1ccc(S(=O)(=O)N2CCOCC2)cc1)c1cc(Cl)ccc1NS(=O)(=O)c1cccc(C(F)(F)F)c1 [Example 157, 5-Chloro-N-(4-(morpholine-4-sulfonyl)-phenyl)-2-(3-trifluoromethyl-phenylsulfonylamino)-benzamide]"
14,21.1,"COc1cc(NS(=O)(=O)c2ccc(Cl)cc2)c(C(=O)Nc2ccc(S(=O)(=O)N3CCS(=O)(=O)CC3)cc2)cc1OC [Example 175, 2-(4-Chloro-phenylsulfonylamino)-4,5-dimethoxy-N-(4-(1,1-dioxo-thiomorpholine-4-sulfonyl)-phenyl)-benzamide]"
15,13.9,"COc1cc(NS(=O)(=O)c2ccc(Cl)cc2)c(C(=O)Nc2ccc(S(=O)(=O)N3CC[S+]([O-])CC3)cc2)cc1OC [Example 176, 2-(4-Chloro-phenylsulfonylamino)-4,5-dimethoxy-N-(4-(1-oxo-thiomorpholine-4-sulfonyl)-phenyl)-benzamide]"

# — US8541410B2, “Sulfur substituted sulfonylaminocarboxylic acid N-arylamides, their preparation, their use and pharmaceutical preparations comprising them” (Sanofi-aventis Deutschland GmbH, priority 1998, dated 2013)
